# Data published in article PMC7093416, “Selective USP7 inhibition elicits cancer cell killing through a p53-dependent mechanism” (Scientific Reports, 2020).
# Tested on: MCF7 cells
# Test: 3' DGE RNA-seq transcriptional profiling
# Format: cell-based
# Parameters: log2FoldChange: concentration or dose not given beside the values
# Details: for log2FoldChange: gene ABCA12
# Procedure: The DGE RNA sequencing was performed following the published method[39],[40] with modifications as described below. MCF7 cells were seeded in a 384 well plate at 2500 cells per well, allowed to adhere for 24 hours, then treated with two doses in triplicate of XL177A, XL177B, Nutlin-3, or DMSO. After 24 hours of treatment, an EL405x plate washer (BioTek) was used to aspirate the media and wash once with PBS. Cells were lysed in the plate with 10 µl of lysis buffer (1x Qiagen TCL, 1% BME) for 5 minutes at room temperature, then stored at −80 °C. Automated liquid handling was performed with assistance from ICCB-Longwood Screening Facility. A BRAVO Automated Liquid Handling Platform (Agilent) was used for RNA extraction as follows. The lysate was mixed and 10 µl was transferred to a 384 well PCR plate. 28 µl of homemade SPRI[66] (solid-phase reversible immobilization) beads were added to the lysate and mixed. After 5 minutes, the beads were pulled down by placing the plate on a magnet, then the beads were washed twice with 80% ethanol. Beads were air dried for 1 minute, then 20 µl of nuclease free water was added, the plate was removed from the magnet, and the beads were resuspended. After 5 minutes, the plate was placed back on the magnet to pull down the beads. The supernatant was transferred to a fresh 384 well plate. RNA quantity was checked with the Qubit Fluorometer and RNA quality was assessed using the Agilent BioAnalyzer RNA 6000 Pico Kit. The BRAVO platform was again used to transfer 5 µl of supernatant was transferred to a fresh 384 well plate with RT master mix and 1 µl of barcoded E3V6NEXT adapters for reverse transcription and template switching. The plate was incubated for 90 minutes at 42 °C, then cDNA was pooled, purified with the QIAquick PCR purification kit. The full-length cDNA was treated with Exonuclease I to remove excess primers for 30 minutes at 37 °C then amplified x5 cycles with Advantage 2 PCR Enzyme System using the SINGV6 primer. The amplified full-length cDNA was purified with Agencourt AMPure XP magnetic beads and quantitated by Qubit Fluorometer. The sequencing library was prepared using the Nextera DNA kit following the manufacturer’s instructions. Briefly, 55 ng of cDNA was tagmented for 5 minutes at 55 °C then purified using Zymo DNA Clean & Concetrator-5 column, then amplified x7 cycles and purified using a 0.9x ratio of AMPure XP magnetic beads. The library size distribution was assessed by Agilent BioAnalyzer HS DNA Kit before it was quantified by qPCR and sequenced on an Illumina NextSeq at the Biopolymers Facility at Harvard Medical School.
# The bcbio-nextgen single cell RNA-seq analysis pipeline (https://bcbio-nextgen.readthedocs.io/en/latest/) was used to deconvolve the well barcodes and convert reads to counts. Any detected barcode that differed by more than one base from an expected barcode was removed. Unique reads were identified using unique molecular identifiers (UMIs) in order to remove PCR duplicates. The reads remaining after these filters were aligned to the transcriptome (GRCh38) using RapMap[67]. The R package DESeq. 2 version 1.20.0 (R version 3.5.1) was used for differential expression analysis.
SMILES,"direct p53 target genes (24 hours, low and high dose)","hierarchical clustering of transcriptional profile (24 hours, 0.1 or 1 μM)",log2FoldChange (concentration 0.1),log2FoldChange (concentration 1),"DREAM complex target genes (24 hours, low and high dose)"
COc1ccc(C2=N[C@@H](c3ccc(Cl)cc3)[C@@H](c3ccc(Cl)cc3)N2C(=O)N2CCNC(=O)C2)c(OC(C)C)c1 [Nutlin-3A],enriched for the direct p53 target genes,,,,
CN1CCN(CCC(=O)Nc2ccc3c(=O)n(CC4(O)CCN(C(=O)[C@H](CCCNC(=O)c5ccc6c(Cl)c7c(nc6c5)CCCC7)Cc5ccccc5)CC4)cnc3c2)CC1 [XL177B],,clustered with the vehicle (DMSO)-treated control cells,0.1473,0.2612,
CN1CCN(CCC(=O)Nc2ccc3c(=O)n(CC4(O)CCN(C(=O)[C@@H](CCCNC(=O)c5ccc6c(Cl)c7c(nc6c5)CCCC7)Cc5ccccc5)CC4)cnc3c2)CC1 [XL177A],strongly upregulated the p53 targets,,0.471,0.4983,strongly downregulated the DREAM complex targets
